According to patent US6984729B1, “Oligonucleotides specific for hepatitis B virus” (priority 1995, dated 2006):
Entries after “also recorded” stand apart in the source; their conditions may differ.

Assays:
[1] = tested on: replicative intermediate (RI) HBV DNA in HepG2.2.15 cells; test: Southern hybridization viral assay in HepG2.2.15 cells; type: cell-based, hepatitis B virus; conditions: titrated concentrations, FIGS. 11, 12
Text: The activity of antisense oligonucleotides was also studied in a viral assay in HepG2.2.15 cells, which have been stably transfected with plasmids carrying whole HBV genomes (Sells et al. (1987) Proc. Nat. Acad. Sci. 84:1005–1009; Sureau et al. (1986) Cell 47:37–47). […] A more definitive test is Southern hybridization, which provides data concerning the character of the detected DNA in addition to quantitation. This assay has been described previously for the screening of anti-HBV compounds on HepG2.2.15 cells (Doong et al. (1991) Proc. Nat. Acad. Sci. (USA) 88:8495–8499). In view of the many potential sources of HBV DNA from transfected cells, this assay allows for a more meaningful interpretation of results than the other methods mentioned.
The cell line HepG2.2.15 (Sells et al. (1988) J. Virol. 62:2836–2844) was routinely cultured in RPMI.1640 medium (Life Technologies Ltd., Paisley, Scotland) supplemented with 10% fetal bovine serum (FBS), 100 U/ml penicillin, and 150 μg/ml streptomycin. Cultures were replaced after 10 passages with cells freshly cultured from a mycoplasma-free frozen stock. Cultures were maintained at 37° C. in a humidified atmosphere of 5% CO2 in air.
Cells were cultured in 6-well plates at 10^6 cells/well in 4 ml medium (RPMI.1640 as above but supplemented with 5% FBS) and maintained as above. […]

[2] = tested on: internally 32P-labelled HBV precore-core RNA (epsilon region); test: RNase H cleavage of HBV precore-core RNA with noncontiguous oligonucleotides targeted to the epsilon region; type: biochemical, hepatitis B virus
Experimental: To determine whether an oligonucleotide of the invention is capable of successfully hybridizing to its target, an RNase H assay was performed (Frank et al. (1993) Proc. Int. Conf. Nucleic Acid Med. Applns. 1:4.14(abstract)). This assay is useful when a region of at least four contiguous nucleotides of the oligonucleotide is DNA and the target is RNA. Hybridization of the DNA portion of the oligonucleotide to the RNA target is identified by cleavage at that site by RNase H.
Noncontiguous oligonucleotides targeted to the HBV epsilon region have also been prepared and tested. The epsilon region is characterized by an RNA stem-loop structure consisting primarily of double-stranded RNA with a single-stranded bulge and loop of 6 bases each (FIG. 3). […] The ability of RNase H to cleave an RNA in this manner inflicts greater damage on the RNA than normal antisense oligodeoxynucleotides, while allowing the targeting of a biologically important region that is otherwise difficult to target due to its double-stranded nature.
Based on this information, several oligodeoxynucleotide phosphorothioates were prepared to test the hypothesis that hybridization by mode B is preferred when spanning the base of an RNA stem. 20mer and 24mer noncontiguous oligonucleotides (Table 2) were prepared as well as the 10mers and 12mers corresponding to the “arms” of the noncontiguous sequences.
If a single oligodeoxynucleotide were able to bind across the base of epsilon to sequences on either side of the stem, RNase H might cleave both sites and effectively cut out the epsilon stem-loop from the RNA. […] The 12+12 noncontiguous phosphorothioates show the same ability to bind across the base of the RNA stem. […] Double cleavage of the transcript in the presence of the mixture of 12mer arms (HBV71+HBV72) was much slower (FIG. 6B).
When oligonucleotides hybridizing via mode B were lengthened to allow strand invasion of the RNA stem, disruption of the stem-loop structure occurred. Oligonucleotides HBV89 (SEQ ID NO:39), HBV90 (SEQ ID NO:40), and HBV91 (SEQ ID NO:41) bind across the base of epsilon via mode B and strand invade on either the 5 side (HBV89) or the 3′ side (HBV90 and HBV91) of the RNA stem. HBV89M is an extension of HBV64M with ten 2′-O-methyl RNA residues invading the RNA stem on the 5′-side. Addition of these strand invading nucleotides increased the cleavage efficiency from 23% to 32% at 100 nM oligonucleotide.
Uniformally ^32P-labelled RNA was prepared from 1 μg linearized plasmid using the Ambion MEGAscript In Vitro Transcription Kit (Ambion, Inc., Austin, Tex.) according to the manufacturers' instructions, using [α-^32p] CTP as the radioactive label. The RNA was treated with RNase-free DNase I (Ambion, Inc., Austin, Tex.), extracted with phenol:chloroform: isoamyl alcohol (25:24:1) and purified from nucleotides and nucleosides on a G-50 Sephadex spin column (Boehringer-Mannheim, Indianapolis, Ind., or Pharmacia, Uppsala, Sweden).
In 9 μl 1× RNase H buffer (40 mM Tris-HCl pH 7.4, 4 mM MgCl2, 1 mM DTT), 20–100 nM labelled RNA and 100 nM oligonucleotides were preincubated for 15 min at 37° C. 1 μl RNase H (1 U/μl) was added, and the reaction was incubated at 37° C. for 10 min. The reactions were quenched and analyzed as described above.
Quantitation of the cleavage products was performed using software supplied with the Phosphorimager (Molecular Dynamics, Sunnyvale, Calif., or Bio-Rad Laboratories, Hercules, Calif.). “Counts” were determined by drawing a box around the band of interest and subtracting the background determined with a box drawn nearby. Counts in a product band were compared to total counts in the lane above that band to determine % cleavage.

parent pGLori sequence = test: Firefly luciferase reporter gene assay in HepG2 cells stably transfected with parent construct (control); type: cell-based
Experimental: Oligonucleotides targeted to the polymerase translation initiation region were also tested in mammalian cells using a firefly luciferase reporter gene assay. The 35 nucleotide region spanning the translation start site of the HBV ayw polymerase gene from nt 2294–2328 was cloned 5′ to, and in frame with, the entire open reading frame of the firefly luciferase gene in the plasmid pGLori, to produce the plasmid pGLpol (FIG. 10). Transcription of this pol-luciferase gene fusion was placed under the control of the cytomegalovirus early gene promoter. Expression of the pol-luciferase fusion in mammalian cells was quantified in a luminometer by addition of luciferin substrate and ATP cofactor to cell lysates. In all cellular antisense assays, a random sequence 20mer phosphorothioate oligonucleotide (random 20mer PS) was used as a negative control. […]
Stably transfected HepG2 cells were seeded into 96 well plates. […] Cells were washed twice with Dulbecco's phosphate-buffered saline (PBS) and lysed in 50 μl cell lysis buffer (Analytical Luminescence Laboratory, San Diego, Calif.). Luciferase activity was measured in 20 μl lysate using Analytical Luminescence Laboratory substrates in a MicroLumat LB 96 P luminometer (EG&G Berthold, Nashua, N.H.).

| Substance | inhibition of the formation of replicative intermediate (RI) HBV DNA [1] | total RNA cleavage by RNase H ([2]; 10+10 and 12+12 noncontiguous oligonucleotides versus mixtures of arms, FIGS. 5A, 6A) | double cleavage (twice cleaved product) by RNase H on both sides of the epsilon stem ([2]; FIGS. 5B, 6B) | antisense activity on luciferase expression, parent pGLori (parent pGLori sequence) |
| --- | --- | --- | --- | --- |
| ACCCAAGGCACAGCTTGGAG (phosphorothioate, further chemistry not given here) [HBV6] | significant inhibition |  |  |  |
| AGGCAGAGGTGATATAAGGGTCGA (chemistry not given here) [HBV67] | Inhibition was also found | equal | efficiently activate RNase H cleavage on both sides of the stem after only 1.5 minutes; also recorded: slightly more cleavage than mode A (HBV79) |  |
| Luc +1–+20: 20mer phosphorothioate antisense oligonucleotide targeting the first 20 nucleotides of the firefly luciferase coding region, positive control, SEQ ID NO:50 (antisense ATGTTTTTGGCGTCTTCCAT; all phosphorothioate, sugars by position and methylation of C not given here) |  |  |  | exhibited antisense activity |
